The results in this text go back to US20170253601A1, “Substituted Pyrrolidine Compounds” (EPIZYME, INC., priority 2014, published 2017).

A value given as a limit tells only on which side of the number the result lay.

For one assay, the target named is T1, SMYD2 (Homo sapiens, UniProt Q9NRG4).
T1 construct: Full length SMYD2 (NP 064582.2) was cloned; His6 (N, cleaved yes); FLAG (N); made in house; host or cells: Sf9 insect cells
T1 sequence (Q9NRG4 whole entry): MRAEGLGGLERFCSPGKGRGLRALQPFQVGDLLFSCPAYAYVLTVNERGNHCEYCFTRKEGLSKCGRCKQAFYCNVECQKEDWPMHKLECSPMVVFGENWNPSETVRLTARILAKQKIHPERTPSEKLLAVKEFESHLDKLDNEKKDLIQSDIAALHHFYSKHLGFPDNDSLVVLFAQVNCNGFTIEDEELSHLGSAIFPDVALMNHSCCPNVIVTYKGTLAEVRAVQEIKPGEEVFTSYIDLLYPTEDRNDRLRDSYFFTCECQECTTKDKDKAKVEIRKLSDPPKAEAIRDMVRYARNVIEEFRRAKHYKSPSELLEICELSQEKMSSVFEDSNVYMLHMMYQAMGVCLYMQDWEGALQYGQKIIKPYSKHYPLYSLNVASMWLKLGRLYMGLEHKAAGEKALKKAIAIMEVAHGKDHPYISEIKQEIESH
Description: SMYD2 Biochemical Assay (3H-SAM, biotinylated peptide substrate, Flashplate). The conditions noted are these: IC50 values are an average of n = 1 to n = 50; read-out: SMYD2 Biochem IC50 (μM)*. The essentials:
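Full-length His/FLAG-tagged SMYD2 expressed in Sf9 cells with tag cleaved, 1.5 nM, pre-incubated 30 min at room temperature with compound, then 10 nM 3H-SAM and 60 nM biotinylated peptide added. Buffer 20 mM Bicine pH 7.6, 1 mM TCEP, 0.005% BSG, 0.002% Tween20, 2% DMSO. Stopped with 600 uM cold SAM; 3H-peptide captured on streptavidin Flashplate; IC50 by curve fit.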
Regarding `C[C@@H]1CN(CC2CCOCC2)C[C@H]1NC(=O)c1cc(C2CC2)on1` (racemic) [compound 170, (±)-trans-5-cyclopropyl-N-[4-methyl-1-(oxan-4-ylmethyl)pyrrolidin-3-yl]-1,2-oxazole-3-carboxamide], the IC50 is > 50 µM. On to `CC(c1cc(C(=O)N[C@@H]2CN(C(C)C)C[C@@H]2C)no1)C(F)F` (relative stereo) [compound 344, cis-5-(1,1-difluoropropan-2-yl)-N-[4-methyl-1-(propan-2-yl)pyrrolidin-3-yl]-1,2-oxazole-3-carboxamide], for which the IC50 came to 10.2 µM. `C[C@H]1CN(CC(=O)N2CCOCC2)C[C@H]1NC(=O)c1cc(C2CC2)on1` (racemic) [compound 270, (±)-cis-5-cyclopropyl-N-[4-methyl-1-[2-(morpholin-4-yl)-2-oxoethyl]pyrrolidin-3-yl]-1,2-oxazole-3-carboxamide]: the IC50 was > 50 µM. Still for that read-out and setting: with `C[C@H]1CN(Cc2cccc3c2OCO3)C[C@H]1NC(=O)c1cc(C2CC2)on1` (racemic) [compound 331, (±)-cis-N-[1-(2H-1,3-benzodioxol-4-ylmethyl)-4-methyl-pyrrolidin-3-yl]-5-cyclopropyl-1,2-oxazole-3-carboxamide] the figure was 3.57 µM; with `C[C@@H]1CN(Cc2c[nH]c3cc(Cl)ccc23)C[C@H]1NC(=O)c1cc(C2CC2)on1` (racemic) [compound 203, (±)-trans-N-[1-[(6-chloro-1H-indol-3-yl)methyl]-4-methyl-pyrrolidin-3-yl]-5-cyclopropyl-1,2-oxazole-3-carboxamide], 48.3 µM; with `CN1C[C@H](NC(=O)c2cc(C3CC3)on2)[C@@H](C2CC2)C1` (racemic) [compound 141, (±)-trans-5-cyclopropyl-N-[4-cyclopropyl-1-methylpyrrolidin-3-yl]-1,2-oxazole-3-carboxamide], > 50 µM.

In the case of `CC(C)N1C[C@@H](C)[C@H](NC(=O)c2cc(C3(C)CC3)on2)C1` (racemic) [compound 250, (±)-trans-N-[4-methyl-1-(propan-2-yl)pyrrolidin-3-yl]-5-(1-methylcyclo-propyl)-1,2-oxazole-3-carboxamide], the IC50 was > 50 µM. The same measure, in the same setting: with `C[C@@H]1CN(Cc2ccccc2Cl)C[C@H]1NC(=O)c1cc(C2CC2)on1` (racemic) [compound 142, (±)-trans-N-1-[(2-chlorophenyl)methyl]-4-methylpyrrolidin-3-yl]-5-cyclopropyl-1,2-oxazole-3-carboxamide] the figure was 27.5 µM; with `CC(C)c1cc(C(=O)N[C@H]2C[C@@H](CNC(=O)c3ccccc3)N(C3CC3)C2)no1` (racemic) [compound 227, (±)-cis-N-[1-cyclo-propyl-5-[(phenyl-formamido)methyl]pyrrolidin-3-yl]-5-(propan-2-yl)-1,2-oxazole-3-carboxamide], > 50 µM. The same measure, in the same setting: with `CN1C[C@@H](C(F)(F)F)[C@H](NC(=O)c2cc(C3CC3)on2)C1` (racemic) [compound 251, (±)-trans-5-cyclopropyl-N-[1-methyl-4-(trifluoro-methyl)pyrrolidin-3-yl]-1,2-oxazole-3-carboxamide] the figure was > 50 µM. For `COc1cc(CN2C[C@@H](C)[C@H](NC(=O)c3cc(C4CC4)on3)C2)cc(OC)c1` (racemic) [compound 181, (±)-trans-5-cyclopropyl-N-[1-[(3,5-dimethoxy-phenyl)methyl]-4-methylpyrrolidin-3-yl]-1,2-oxazole-3-carboxamide], the IC50 is > 50 µM. For `CC(C)c1cc(C(=O)N[C@@H]2C[C@@H](CNC(=O)C3CCCCC3)N(C3CC3)C2)no1` (stereo in doubt) [compound 243, (±)-trans-N-[5-[(cyclo-hexylformamido)methyl]-1-cyclopropylpyrrolidin-3-yl]-5-(propan-2-yl)-1,2-oxazole-3-carboxamide], the half-maximal inhibitory concentration (IC50) is > 50 µM. With `C[C@H]1CN(Cc2ccc3c(c2)OCCN3C)C[C@H]1NC(=O)c1cc(C2CC2)on1` (racemic) [compound 289, (±)-cis-5-cyclopropyl-N-{4-methyl-1-[(4-methyl-3,4-dihydro-2H-1,4-benzoxazin-7-yl)methyl]pyrrolidin-3-yl}-1,2-oxazole-3-carboxamide], the IC50 turned out to be 6.08 µM. In the case of `CC(C)N1C[C@@H](C)[C@@H](NC(=O)c2cc(C3CC3)on2)C1` [compound 234, 5-cyclopropyl-N-[(3R,4R)-4-methyl-1-(propan-2-yl)pyrrolidin-3-yl]-1,2-oxazole-3-carboxamide], the IC50 is 0.682 µM. The same measure, in the same setting: with `C[C@@H]1CN(C2CCS(=O)(=O)CC2)C[C@@H]1NC(=O)c1cc(C2CC2)on1` (racemic) [compound 166, (±)-cis-5-cyclopropyl-N-(1-(1,1-dioxido-tetrahydro-2H-thiopyran-4-yl)-4-methylpyrrolidin-3-yl)isoxazole-3-carboxamide] the figure was 19.8 µM; with `C[C@H]1CN(Cc2c[nH]cn2)C[C@H]1NC(=O)c1cc(C2CC2)on1` (racemic) [compound 328, (±)-cis-5-cyclopropyl-N-[1-(1H-imidazol-4-ylmethyl)-4-methyl-pyrrolidin-3-yl]-1,2-oxazole-3-carboxamide], 2.65 µM.

Take `COc1ccc(CN2C[C@H](C)[C@H](NC(=O)c3cc(C4CC4)on3)C2)cc1` (racemic) [compound 228, (±)-cis-5-cyclopropyl-N-[1-[(4-methoxy-phenyl)methyl]-4-methylpyrrolidin-3-yl]-1,2-oxazole-3-carboxamide]: the IC50 was determined as 3.63 µM. On the same count and under the same terms, with `C[C@H]1CN(Cc2ccc(S(C)(=O)=O)cc2)C[C@H]1NC(=O)c1cc(C2CC2)on1` (racemic) [compound 290, (±)-cis-5-cyclopropyl-N-{1-[(4-methane-sulfonylphenyl)methyl]-4-methylpyrrolidin-3-yl}-1,2-oxazole-3-carboxamide] the figure was 10.5 µM; with `C[C@H]1CN(Cc2ccsc2)C[C@H]1NC(=O)c1cc(C2CC2)on1` (racemic) [compound 283, (±)-cis-5-cyclopropyl-N-[4-methyl-1-(thiophen-3-ylmethyl)pyrrolidin-3-yl]-1,2-oxazole-3-carboxamide], 1.85 µM.

The same assay, now with this note: Table 1; average of n = 1 to n = 50; read-out: SMYD2 Biochem IC50.
In the case of `C[C@H]1CN(C2CC2)C[C@@H]1NC(=O)c1cc(C2CC2)no1` (racemic) [compound 50, (±)-trans-3-cyclopropyl-N-(1-cyclopropyl-4-methylpyrrolidin-3-yl)isoxazole-5-carboxamide], the IC50 is > 50 µM. In the case of `C[C@H]1CN(C2CC2)C[C@H]1NC(=O)c1cc(C2CC2)no1` (racemic) [compound 51, (±)-cis-3-cyclopropyl-N-(1-cyclopropyl-4-methylpyrrolidin-3-yl)isoxazole-5-carboxamide], the half-maximal inhibitory concentration (IC50) stood at 7.9 µM.

Still in this assay, the particulars now being: Table 2; average of n = 1 to n = 50; read-out: SMYD2 Biochem IC50.
For `C[C@H]1CN(C(=O)CN)C[C@@H]1NC(=O)c1cc(C2CC2)on1` (racemic) [compound 92, (±)-trans-5-cyclopropyl-N-(1-glycyl-4-methylpyrrolidin-3-yl)isoxazole-3-carboxamide], the IC50 is > 50 µM. The same measure, in the same setting: with `CCN1C[C@H](C)[C@H](NC(=O)c2cc(C3CC3)on2)C1` (racemic) [compound 110, (±)-cis-5-cyclopropyl-N-(1-ethyl-4-methylpyrrolidin-3-yl)isoxazole-3-carboxamide] the figure was 3 µM. On the same count and under the same terms, with `C[C@H]1CN(C(=O)CC2CCNCC2)C[C@@H]1NC(=O)c1cc(C2CC2)on1` (racemic) [compound 95, (±)-trans-5-cyclopropyl-N-(4-methyl-1-(2-(piperidin-4-yl)acetyl)pyrrolidin-3-yl)isoxazole-3-carboxamide] the figure was > 50 µM.

As a reminder, the IC50 is the concentration at which inhibition is half-maximal.
